Where two headings read alike, the source gives them in different places.
Test system: respiratory epithelial cells
[1] = HG-U95E, lot 1, Day 3, AI (head as in Table 18)
[2] = HG-U95E, lot 1, Day 7, AI (no head printed, inferred)
[3] = HG-U95E, lot 2, Day 3, AI (no head printed, inferred)

IL-13: human IL-13 (Peprotech, Inc.) added to the medium at 50 ng/mL to stimulate respiratory epithelial cells
CRYM (38285_at) expression change upon IL-13 stimulation (HG-U95A, lot 2, Day 7, AI): −3.5 | CSPG2 (38112_g_at) expression change upon IL-13 stimulation (HG-U95A, lot 2, Day 7, AI): −2.5 | DHCR24 (36658_at) expression change upon IL-13 stimulation (HG-U95A, lot 2, Day 7, AI): −4.3 | DSG3 (33693_at) expression change upon IL-13 stimulation (HG-U95A, lot 2, Day 7, AI): −2.2 | E48 (36284_at) expression change upon IL-13 stimulation (HG-U95A, lot 2, Day 7, AI): −5.6 | EPHX1 (38790_at) expression change upon IL-13 stimulation (HG-U95A, lot 2, Day 7, AI): −5.1 | FACL2 (40082_at) expression change upon IL-13 stimulation (HG-U95A, lot 2, Day 7, AI): −2 | FMO3 (40665_at) expression change upon IL-13 stimulation (HG-U95A, lot 2, Day 7, AI): −4.3 | GLUL (40522_at) expression change upon IL-13 stimulation (HG-U95A, lot 2, Day 7, AI): −4.4 | GPX3 (770_at) expression change upon IL-13 stimulation (HG-U95A, lot 2, Day 7, AI): −2.8 | GSTA4 (40508_at) expression change upon IL-13 stimulation (HG-U95A, lot 2, Day 7, AI): −5.4 | HGNC, keratinocyte transglutaminase gene (35947_at) expression change upon IL-13 stimulation (HG-U95A, lot 2, Day 7, AI): −3.2 | KIAA0878 (32215_1_at) expression change upon IL-13 stimulation (HG-U95A, lot 2, Day 7, AI): −2.7 | KIAA1055 (39400_at) expression change upon IL-13 stimulation (HG-U95A, lot 2, Day 7, AI): −3 | LCE (40943_at) expression change upon IL-13 stimulation (HG-U95A, lot 2, Day 7, AI): −3.7 | LGALS1 (33412_at) expression change upon IL-13 stimulation (HG-U95A, lot 2, Day 7, AI): −6.2 | SCYD1 (823_at) expression change upon IL-13 stimulation (HG-U95A, lot 2, Day 7, AI): −24.6 | SDC1 (38127_at) expression change upon IL-13 stimulation (HG-U95A, lot 2, Day 7, AI): −2.9 | TGFBI (1385_at) expression change upon IL-13 stimulation (HG-U95A, lot 2, Day 7, AI): −4.9 | TNFAIP2 (38631_at) expression change upon IL-13 stimulation (HG-U95A, lot 2, Day 7, AI): −3.7 | AA199856 (72960_s_at) expression change upon IL-13 stimulation (HG-U95E, lot 1, Day 3, AI): 4.3 | AI859144, KIAA1127 (77546_at) expression change upon IL-13 stimulation (HG-U95E, lot 1, Day 3, AI): 4.2 | BAL (69619_at) expression change upon IL-13 stimulation (HG-U95E, lot 1, Day 3, AI): 3.5 | EHF (8S090_at) expression change upon IL-13 stimulation (HG-U95E, lot 1, Day 3, AI): 2.3 | EPSTI1 (90421_at) expression change upon IL-13 stimulation (HG-U95E, lot 1, Day 3, AI): 7.2 | FLJ20989 (91420_at) expression change upon IL-13 stimulation (HG-U95E, lot 1, Day 3, AI): 14.8 | FLJ22833 (67329_at) expression change upon IL-13 stimulation (HG-U95E, lot 1, Day 3, AI): 3.1 | GCNT3 (77751_at) expression change upon IL-13 stimulation (HG-U95E, lot 1, Day 3, AI): 4.9 | MFHAS1 (87816_g_at) expression change upon IL-13 stimulation (HG-U95E, lot 1, Day 3, AI): 3 | RPL4 (80675_at) expression change upon IL-13 stimulation (HG-U95E, lot 1, Day 3, AI): 2.2 | SCYA26 (90189_at) expression change upon IL-13 stimulation (HG-U95E, lot 1, Day 3, AI): 26.3 | H70665 (67357_at) expression change upon IL-13 stimulation [1]: 2.6 | SLC21A12 (87860_s_at) expression change upon IL-13 stimulation [1]: 2.7 | TBLR1 (87125_at) expression change upon IL-13 stimulation [1]: 2.8 | AA199856 (72960_s_at) expression change upon IL-13 stimulation (HG-U95E, lot 1, Day 3, IMM): 5.8 | AI859144, KIAA1127 (77546_at) expression change upon IL-13 stimulation (HG-U95E, lot 1, Day 3, IMM): 6.1 | AW024819 (72867_at) expression change upon IL-13 stimulation (HG-U95E, lot 1, Day 3, IMM): 4.2 | BAL (69619_at) expression change upon IL-13 stimulation (HG-U95E, lot 1, Day 3, IMM): 3.1 | EPSTI1 (90421_at) expression change upon IL-13 stimulation (HG-U95E, lot 1, Day 3, IMM): 9.9 | FLJ20989 (91420_at) expression change upon IL-13 stimulation (HG-U95E, lot 1, Day 3, IMM): 13.5 | GCNT3 (77751_at) expression change upon IL-13 stimulation (HG-U95E, lot 1, Day 3, IMM): 10.2 | RIG-1 (77749_at) expression change upon IL-13 stimulation (HG-U95E, lot 1, Day 3, IMM): 3.9 | SCYA26 (90189_at) expression change upon IL-13 stimulation (HG-U95E, lot 1, Day 3, IMM): 18.1 | EHF (85092_g_at) expression change upon IL-13 stimulation (HG-U95E, lot 1, Day 3, IMM (head as in Table 18)): 2.3 | AA199856 (72960_s_at) expression change upon IL-13 stimulation (HG-U95E, lot 1, Day 7, AI): 3.9 | AA806114 (80826_at) expression change upon IL-13 stimulation (HG-U95E, lot 1, Day 7, AI): 5.3 | AI803648 (89255_at) expression change upon IL-13 stimulation (HG-U95E, lot 1, Day 7, AI): 3.5 | AI859144, KIAA1127 (77546_at) expression change upon IL-13 stimulation (HG-U95E, lot 1, Day 7, AI): 2.6 | AI984061 (89834_at) expression change upon IL-13 stimulation (HG-U95E, lot 1, Day 7, AI): 2.7 | AW024819 (72867_at) expression change upon IL-13 stimulation (HG-U95E, lot 1, Day 7, AI): 2.6 | BCAT1 (72962_at) expression change upon IL-13 stimulation (HG-U95E, lot 1, Day 7, AI): 2.7 | CLDN1 (77660_at) expression change upon IL-13 stimulation (HG-U95E, lot 1, Day 7, AI): 2.6 | EHF (85092_g_at) expression change upon IL-13 stimulation (HG-U95E, lot 1, Day 7, AI): 2.1 | EPPK1 (86507_at) expression change upon IL-13 stimulation (HG-U95E, lot 1, Day 7, AI): 2.6 | FLJ20281 (83376_at) expression change upon IL-13 stimulation (HG-U95E, lot 1, Day 7, AI): 2.1 | FLJ20989 (91420_at) expression change upon IL-13 stimulation (HG-U95E, lot 1, Day 7, AI): 3.4 | FLJ21415 (89902_at) expression change upon IL-13 stimulation (HG-U95E, lot 1, Day 7, AI): 3.4 | FLJ22833 (67329_at) expression change upon IL-13 stimulation (HG-U95E, lot 1, Day 7, AI): 3.6 | GCNT3 (77751_at) expression change upon IL-13 stimulation (HG-U95E, lot 1, Day 7, AI): 2.5 | KIAA1685 (83541_at) expression change upon IL-13 stimulation (HG-U95E, lot 1, Day 7, AI): 2.6 | MASL1 (89651_at) expression change upon IL-13 stimulation (HG-U95E, lot 1, Day 7, AI): 4.3 | MFHAS1 (87816_g_at) expression change upon IL-13 stimulation (HG-U95E, lot 1, Day 7, AI): 3.4 | RIG-1 (77749_at) expression change upon IL-13 stimulation (HG-U95E, lot 1, Day 7, AI): 3.4 | SCYA26 (90189_at) expression change upon IL-13 stimulation (HG-U95E, lot 1, Day 7, AI): 30.4 | vipirin (84893_at) expression change upon IL-13 stimulation (HG-U95E, lot 1, Day 7, AI): 2.7 | NIFK (89320_at) expression change upon IL-13 stimulation [2]: 2.9 | SLC1A5 (34759_at) expression change upon IL-13 stimulation [2]: 2.5 | SLC17A5 (88617_at) expression change upon IL-13 stimulation [2]: 2.7 | SLC21A12 (87860_s_at) expression change upon IL-13 stimulation [2]: 2.7 | rab11-FIP1 (89338_at) expression change upon IL-13 stimulation [2]: 4.4 | AA199856 (72960_s_at) expression change upon IL-13 stimulation (HG-U95E, lot 1, Day 7, IMM): 3.8 | AA806114 (80826_at) expression change upon IL-13 stimulation (HG-U95E, lot 1, Day 7, IMM): 5.3 | AI803648 (89255_at) expression change upon IL-13 stimulation (HG-U95E, lot 1, Day 7, IMM): 7 | BAL (69619_at) expression change upon IL-13 stimulation (HG-U95E, lot 1, Day 7, IMM): 2.2 | BCAT1 (72962_at) expression change upon IL-13 stimulation (HG-U95E, lot 1, Day 7, IMM): 3.4 | EPPK1 (86507_at) expression change upon IL-13 stimulation (HG-U95E, lot 1, Day 7, IMM): 3.6 | EPSTI1 (90421_at) expression change upon IL-13 stimulation (HG-U95E, lot 1, Day 7, IMM): 3.4 | FLJ22833 (67329_at) expression change upon IL-13 stimulation (HG-U95E, lot 1, Day 7, IMM): 3.7 | GCNT3 (77751_at) expression change upon IL-13 stimulation (HG-U95E, lot 1, Day 7, IMM): 3.5 | MFHAS1 (87816_g_at) expression change upon IL-13 stimulation (HG-U95E, lot 1, Day 7, IMM): 3.1 | RIG-1 (77749_at) expression change upon IL-13 stimulation (HG-U95E, lot 1, Day 7, IMM): 5.1 | SCYA26 (90189_at) expression change upon IL-13 stimulation (HG-U95E, lot 1, Day 7, IMM): 35.1 | vipirin (84893_at) expression change upon IL-13 stimulation (HG-U95E, lot 1, Day 7, IMM): 6.6 | AA199856 (72960_s_at) expression change upon IL-13 stimulation (HG-U95E, lot 2, Day 3, AI): 18.8 | AA779704 (68562_at) expression change upon IL-13 stimulation (HG-U95E, lot 2, Day 3, AI): 2.8 | AA806114 (80826_at) expression change upon IL-13 stimulation (HG-U95E, lot 2, Day 3, AI): 7.2 | AI859144, KIAA1127 (77546_at) expression change upon IL-13 stimulation (HG-U95E, lot 2, Day 3, AI): 5.5 | BAL (69619_at) expression change upon IL-13 stimulation (HG-U95E, lot 2, Day 3, AI): 3.1 | BCAT1 (72962_at) expression change upon IL-13 stimulation (HG-U95E, lot 2, Day 3, AI): 10.5 | EHF (8S090_at) expression change upon IL-13 stimulation (HG-U95E, lot 2, Day 3, AI): 3.3 | EHF (85092_g_at) expression change upon IL-13 stimulation (HG-U95E, lot 2, Day 3, AI): 3.3 | EPSTI1 (90421_at) expression change upon IL-13 stimulation (HG-U95E, lot 2, Day 3, AI): 9.4 | FLJ22833 (67329_at) expression change upon IL-13 stimulation (HG-U95E, lot 2, Day 3, AI): 6.1 | MASL1 (89651_at) expression change upon IL-13 stimulation (HG-U95E, lot 2, Day 3, AI): 3.2 | MFHAS1 (87816_g_at) expression change upon IL-13 stimulation (HG-U95E, lot 2, Day 3, AI): 3.5 | OAS2 (90662_at) expression change upon IL-13 stimulation (HG-U95E, lot 2, Day 3, AI): 4.1 | RIG-1 (77749_at) expression change upon IL-13 stimulation (HG-U95E, lot 2, Day 3, AI): 6.4 | RPL4 (80675_at) expression change upon IL-13 stimulation (HG-U95E, lot 2, Day 3, AI): 2.3 | SCYA26 (90189_at) expression change upon IL-13 stimulation (HG-U95E, lot 2, Day 3, AI): 16.7 | vipirin (84893_at) expression change upon IL-13 stimulation (HG-U95E, lot 2, Day 3, AI): 15.4 | H70665 (67357_at) expression change upon IL-13 stimulation [3]: 2.1 | NIFK (89320_at) expression change upon IL-13 stimulation [3]: 2.1 | TBLR1 (87125_at) expression change upon IL-13 stimulation [3]: 4.4 | NIFK (89320_at) expression change upon IL-13 stimulation (HG-U95E, lot 2, Day 7): 3.4 | SLC1A5 (34759_at) expression change upon IL-13 stimulation (HG-U95E, lot 2, Day 7): 2.9 | SLC17A5 (88617_at) expression change upon IL-13 stimulation (HG-U95E, lot 2, Day 7): 2.3

Source: patent US20050208496A1, “Methods of testing for bronchial asthma or chronic obstructive pulmonary disease” (Genox Research, Inc., priority 2002, published 2005)
